Measured values: PubChem BioAssay (NCI)
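Each compound was tested at five concentrations against cells in 96-well plates for 48 hours. GI50: concentration for 50% inhibition of growth. TGI denotes the concentration required for complete inhibition of growth.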

How the values were obtained:
Experiment in all cases: NCI tumour cell line growth inhibition, 48 h
[1] = tested on: UO-31 renal
[2] = tested on: NCI-H226 lung
[3] = tested on: A498 renal
[4] = tested on: 786-0 renal
[5] = tested on: SNB-75 CNS
[6] = tested on: UACC-257 melanoma
[7] = tested on: M14 melanoma
[8] = tested on: HT29 colon
[9] = tested on: HOP-62 NSCLC
[10] = tested on: SF-295 CNS

SMILES: CCCCCCCCCCCCOC1C(C(COC2OC(C(O)CO)C3OC(C)(C)OC23)OC(=O)Nc2ccccc2)OC2OC(C)(C)OC21 (stereo not given)
- GI50 [1]: 9.01 µM
- TGI [1]: 23.7 µM
- GI50 [2]: 11.8 µM
- TGI [2]: 26.4 µM
- GI50 [3]: 12.4 µM
- TGI [3]: 25.1 µM
- GI50 [4]: 5.84 µM
- TGI [4]: 17.2 µM
- GI50 [5]: 5.2 µM
- TGI [5]: 16.9 µM
- GI50 [6]: 9.94 µM
- TGI [6]: 25.2 µM
- GI50 [7]: 5.12 µM
- TGI [7]: 17 µM
- GI50 [8]: 2.11 µM
- TGI [8]: 4.68 µM
- GI50 [9]: 9.7 µM
- TGI [9]: 22.2 µM
- GI50 [10]: 5.47 µM
- TGI [10]: 17.7 µM

SMILES: N#Cc1c(CC(=O)O)cc(=O)n2c1[nH]c1ccccc12
- TGI [1]: > 100 µM
- TGI [2]: > 100 µM
- TGI [3]: > 100 µM
- TGI [4]: > 100 µM
- TGI [5]: > 100 µM
- TGI [6]: > 100 µM
- TGI [7]: > 100 µM
- TGI [8]: > 100 µM
- TGI [9]: > 100 µM
- TGI [10]: > 100 µM

SMILES: COc1cc2c(cc1C)NC(=O)/C2=C\c1ccc(Oc2ccccc2)cc1
- GI50 [1]: 14.8 µM
- TGI [1]: 30.9 µM
- GI50 [2]: 16.7 µM
- TGI [2]: 32.6 µM
- GI50 [3]: 13.9 µM
- TGI [3]: 26.8 µM
- GI50 [4]: 12 µM
- TGI [4]: 24.8 µM
- GI50 [5]: 21 µM
- TGI [5]: 37.4 µM
- GI50 [6]: 17.7 µM
- TGI [6]: 34 µM
- GI50 [7]: 15.1 µM
- TGI [7]: 29.2 µM
- GI50 [8]: 12.2 µM
- TGI [8]: 25.6 µM
- GI50 [9]: 16.9 µM
- TGI [9]: 31 µM
- GI50 [10]: 17 µM
- TGI [10]: 36.8 µM

SMILES: COc1cc(/C=C/C(=O)c2nc3cc(F)ccc3nc2C)cc(OC)c1OC
- GI50 [1]: 7.07 µM
- TGI [1]: > 100 µM
- GI50 [2]: > 100 µM
- TGI [2]: > 100 µM
- GI50 [3]: 5.78 µM
- TGI [3]: > 100 µM
- GI50 [4]: > 23.2 µM
- TGI [4]: > 100 µM
- GI50 [5]: 9.3 µM
- TGI [5]: > 100 µM
- GI50 [6]: 5.51 µM
- TGI [6]: > 100 µM
- GI50 [7]: > 43.2 µM
- TGI [7]: > 100 µM
- GI50 [8]: 3.75 µM
- TGI [8]: > 100 µM
- GI50 [9]: > 27.8 µM
- TGI [9]: > 100 µM
- GI50 [10]: > 25.2 µM
- TGI [10]: > 100 µM

SMILES: CC1=C(C(=O)Nc2ccc3[nH]ncc3c2)C(c2ccc(F)cc2)N=C(c2ccc(C(F)(F)F)nc2)N1 (stereo not given)
- GI50 [1]: 3.35 µM
- TGI [1]: 24.4 µM
- GI50 [2]: 3.99 µM
- TGI [2]: > 25 µM
- GI50 [3]: 2.23 µM
- TGI [3]: 9.32 µM
- GI50 [4]: 10.8 µM
- TGI [4]: > 25 µM
- GI50 [5]: 2.4 µM
- TGI [5]: 15.9 µM
- GI50 [6]: 15.7 µM
- TGI [6]: > 25 µM
- GI50 [7]: 10.4 µM
- TGI [7]: > 25 µM
- GI50 [8]: 11.5 µM
- TGI [8]: > 25 µM
- GI50 [9]: 10.1 µM
- TGI [9]: > 25 µM
- GI50 [10]: 9.81 µM
- TGI [10]: > 25 µM

SMILES: O=C1c2ccccc2C2(O)N(c3ccccc3)C(=S)N(c3ccccc3)C12O (stereo not given)
- TGI [1]: > 100 µM
- TGI [2]: > 100 µM
- TGI [3]: > 100 µM
- TGI [4]: > 100 µM
- TGI [5]: > 100 µM
- TGI [6]: > 100 µM
- TGI [7]: > 100 µM
- TGI [8]: > 100 µM
- TGI [9]: > 100 µM
- TGI [10]: > 100 µM

SMILES: COc1ccc(Cn2c(Br)c3c(c2-c2cc(OC)c(OC)c(OC)c2)CCc2sc(N)nc2-3)cc1
- GI50 [1]: 1.5 µM
- TGI [1]: 17.9 µM
- GI50 [2]: 6.93 µM
- TGI [2]: > 50.6 µM
- GI50 [3]: 0.267 µM
- TGI [3]: 2.36 µM
- GI50 [4]: 2.17 µM
- TGI [4]: > 49.8 µM
- GI50 [5]: 0.688 µM
- TGI [5]: 31.8 µM
- GI50 [6]: 11.8 µM
- TGI [6]: 51.3 µM
- GI50 [7]: 1.36 µM
- TGI [7]: > 44.9 µM
- GI50 [8]: 0.731 µM
- TGI [8]: 5.48 µM
- GI50 [9]: 1.33 µM
- TGI [9]: > 47 µM
- GI50 [10]: 0.556 µM
- TGI [10]: 7.57 µM

SMILES: O=c1c2cc(Br)ccc2nc(CNc2ccccc2)n1-c1ccccc1
- TGI [1]: > 57.8 µM
- TGI [2]: 43.9 µM
- TGI [3]: 93.4 µM
- TGI [4]: 28.4 µM
- TGI [5]: > 59.5 µM
- TGI [6]: 98 µM
- TGI [7]: 47.6 µM
- TGI [8]: 46.2 µM
- TGI [9]: > 60.6 µM
- TGI [10]: > 58 µM
